Values joined by “and” are separate entries in the source; they are usually repeats but may differ in a detail not shown here. Equal entries are not always repeated.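 96-well plates; 48 h exposure; 5 concentrations. Endpoints by linear interpolation between flanking doses. Not reached: highest tested concentration assigned. At the GI50, growth is halved. The concentration for full growth arrest is given as TGI.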

Some test systems named below: UO-31 renal; RXF 393 renal; CCRF-CEM leukemia; NCI-H522 lung; NCI-H226 lung; MDA-MB-435; HL-60(TB) leukemia; K-562 leukemia; SN12C renal; NCI-H460 lung.
Assay in all cases: NCI tumour cell line growth inhibition, 48 h

Regarding `CCN(CCCOc1ccccc1)CCN(CC)CCCOc1ccccc1`, the TGI in the assay with UO-31 renal is 22.3 µM; in the assay on RXF 393 renal, 38.5 µM; in the assay with CCRF-CEM leukemia it was more than 100 µM; in the assay with NCI-H522 lung, 28.9 µM; with NCI-H226 lung, 46.8 µM; in the assay on MDA-MB-435, 34.2 µM. Further, the TGI in the assay on HL-60(TB) leukemia was 25.4 µM; in the assay on K-562 leukemia, 15.5 µM; in the assay on SN12C renal it was 44.8 µM; in the assay on NCI-H460 lung it was 34.9 µM.

In the case of `COC1CC(N)(c2ccccc2)C(O)C(C)O1` (configuration not stated), the TGI in the assay on UO-31 renal, in the assay with RXF 393 renal, in the assay with CCRF-CEM leukemia, with NCI-H522 lung, with NCI-H226 lung and in the assay on MDA-MB-435 was more than 100 µM in each case. In addition, the TGI in the assay on HL-60(TB) leukemia, in the assay on K-562 leukemia, with SN12C renal and in the assay with NCI-H460 lung was more than 100 µM throughout.

Consider `Cc1ccc(Nc2nc3[nH]ccc3c(=O)[nH]2)cc1`, for which the TGI with UO-31 renal, in the assay on RXF 393 renal, in the assay on CCRF-CEM leukemia, in the assay with NCI-H522 lung, with NCI-H226 lung and in the assay on MDA-MB-435 was more than 100 µM throughout. The TGI with HL-60(TB) leukemia, with K-562 leukemia, in the assay on SN12C renal and in the assay on NCI-H460 lung was more than 100 µM each time.

`COc1cc2c(c(O)c1O)C(=O)C1CCC(=O)N1C2c1cccc2ccccc12` (configuration not stated): the TGI with UO-31 renal, in the assay with RXF 393 renal, in the assay with CCRF-CEM leukemia, in the assay on NCI-H522 lung, in the assay on NCI-H226 lung and with MDA-MB-435 was more than 50 µM in each case. Moreover, the TGI in the assay on HL-60(TB) leukemia, in the assay on K-562 leukemia, in the assay on SN12C renal and in the assay with NCI-H460 lung was more than 50 µM throughout.

As for `O=S1(=O)c2ccccc2Oc2ccc(C(/C=N/O)=N/O)cc21`, the TGI in the assay with UO-31 renal was 68.8 µM; with RXF 393 renal, 63.6 µM; in the assay with CCRF-CEM leukemia, 72.1 µM; in the assay with NCI-H522 lung, 26.7 µM; with NCI-H226 lung, more than 100 µM; in the assay on MDA-MB-435, 52.4 µM. The TGI with HL-60(TB) leukemia is 47.3 µM; in the assay on K-562 leukemia, more than 100 µM; with SN12C renal, more than 100 µM; with NCI-H460 lung, more than 100 µM.

On to `OC1[C@@H]2[C@@H](O)CCCN2C[C@@H](O)[C@H]1O` (some centres not stated), for which the TGI with UO-31 renal, in the assay with RXF 393 renal, in the assay with CCRF-CEM leukemia, in the assay with NCI-H522 lung, in the assay on NCI-H226 lung and with MDA-MB-435 was more than 100 µM throughout. Moreover, the TGI in the assay with HL-60(TB) leukemia, in the assay on K-562 leukemia, with SN12C renal and in the assay on NCI-H460 lung was more than 100 µM throughout.

Turning to `[N-]=[N+]=Nc1c(Cc2ccccc2)c(Cl)nc2ccccc12`, the TGI is more than 100 µM in the assay on UO-31 renal; 39.6 µM with RXF 393 renal; more than 100 µM in the assay with CCRF-CEM leukemia; more than 100 µM in the assay on NCI-H522 lung; 59.7 µM with NCI-H226 lung; 37.2 µM in the assay on MDA-MB-435. Moreover, the TGI is 56.6 µM in the assay with HL-60(TB) leukemia, 83.7 µM in the assay on K-562 leukemia, 73.8 µM with SN12C renal and more than 100 µM in the assay with NCI-H460 lung.

On to `COc1cc(C2c3c(ccc4ccccc34)C(=O)C3CCC(=O)N32)cc(OC)c1OC` (configuration not stated), for which the TGI in the assay on UO-31 renal, in the assay on RXF 393 renal, in the assay on CCRF-CEM leukemia, in the assay with NCI-H522 lung, in the assay on NCI-H226 lung and in the assay with MDA-MB-435 was more than 50 µM each time. Also, the TGI in the assay with HL-60(TB) leukemia, in the assay with K-562 leukemia, with SN12C renal and in the assay with NCI-H460 lung was more than 50 µM in each case.

In the case of `COc1cccc(N2C(=O)CSC2c2cccc(Oc3ccccc3)c2)c1` (configuration not stated), the TGI with UO-31 renal is more than 100 µM; with RXF 393 renal, 39.1 µM; in the assay on CCRF-CEM leukemia, more than 100 µM; with NCI-H522 lung, 20.6 µM; in the assay with NCI-H226 lung, 69.1 µM; with MDA-MB-435, more than 100 µM. In addition, the TGI in the assay on HL-60(TB) leukemia was found to be 66.5 µM; with K-562 leukemia it was 11.4 µM; in the assay on SN12C renal it was 25 µM; in the assay on NCI-H460 lung, 12.3 µM.

Take `Cn1c(=O)c2c(nc3n(CC(O)CCl)c(=O)ccn23)n(C)c1=O` (configuration not stated): the TGI in the assay on UO-31 renal, with RXF 393 renal, in the assay with CCRF-CEM leukemia, in the assay on NCI-H522 lung, in the assay with NCI-H226 lung and with MDA-MB-435 was more than 100 µM throughout. Further, the TGI in the assay on HL-60(TB) leukemia, with K-562 leukemia, with SN12C renal and in the assay with NCI-H460 lung was more than 100 µM throughout.

Take `C[C@@]1(O)C2CC3CC1(c1ccccc1)CC(/C3=N/O)/C2=N\O` (some centres not stated): the TGI in the assay with UO-31 renal, in the assay with RXF 393 renal, in the assay on CCRF-CEM leukemia, in the assay on NCI-H522 lung, with NCI-H226 lung and with MDA-MB-435 was more than 100 µM in each case. Further, the TGI in the assay on HL-60(TB) leukemia, with K-562 leukemia, with SN12C renal and with NCI-H460 lung was more than 100 µM each time.

Consider `COC(=O)Cc1cc(O)c2c(c1O)C(=O)c1ccccc1C2=O`, for which the TGI was more than 100 µM with UO-31 renal; 63.7 µM with RXF 393 renal; more than 100 µM with CCRF-CEM leukemia; more than 100 µM in the assay on NCI-H522 lung; more than 100 µM with NCI-H226 lung; more than 100 µM with MDA-MB-435. The TGI in the assay with HL-60(TB) leukemia, in the assay on K-562 leukemia, in the assay with SN12C renal and in the assay with NCI-H460 lung was more than 100 µM each time.

With `Fc1ccc(C(OCCN2CCN(CCCc3ccccc3)CC2)c2ccc(F)cc2)cc1`, the TGI with UO-31 renal was 12 µM; with RXF 393 renal, 11.3 µM; in the assay on CCRF-CEM leukemia, more than 100 µM; in the assay with NCI-H522 lung, 12.4 µM; in the assay on NCI-H226 lung, 13.9 µM; in the assay with MDA-MB-435 it was 14 µM. Further, the TGI turned out to be 16 µM in the assay on HL-60(TB) leukemia, 16.1 µM with K-562 leukemia, 15.8 µM in the assay on SN12C renal and 15.3 µM with NCI-H460 lung.

As to `O=[N+]([O-])c1ccccc1OCCOc1ccccc1[N+](=O)[O-]`, the TGI with UO-31 renal, in the assay with RXF 393 renal, in the assay with CCRF-CEM leukemia, in the assay with NCI-H522 lung, in the assay with NCI-H226 lung and with MDA-MB-435 was more than 100 µM each time. Further, the TGI in the assay on HL-60(TB) leukemia, in the assay on K-562 leukemia, in the assay with SN12C renal and with NCI-H460 lung was more than 100 µM each time.

Consider `NC(=O)CNC(=O)[C@@H]1CC(OCCC(=O)O)CN1C(=O)C1CCCN1C(=O)OCc1ccccc1` (some centres not stated), for which the TGI with UO-31 renal, in the assay on RXF 393 renal, with CCRF-CEM leukemia, in the assay with NCI-H522 lung, in the assay on NCI-H226 lung and in the assay with MDA-MB-435 was more than 100 µM each time. Also, the TGI in the assay on HL-60(TB) leukemia, with K-562 leukemia, in the assay with SN12C renal and in the assay with NCI-H460 lung was more than 100 µM each time.

Regarding `N#Cc1c(-c2ccc(Cl)cc2)c2c(nn3c4ccc5ccccc5c4nnc23)[nH]c1=O`, the TGI was 12.6 µM with UO-31 renal; 3.72 µM with RXF 393 renal; more than 100 µM in the assay with CCRF-CEM leukemia; 3.56 µM in the assay on NCI-H522 lung; more than 52.5 µM in the assay on NCI-H226 lung; 8.69 µM with MDA-MB-435. In addition, the TGI with HL-60(TB) leukemia was more than 100 µM; in the assay on K-562 leukemia, more than 69.6 µM; with SN12C renal, 12.2 µM; in the assay on NCI-H460 lung, 16.2 µM.

Consider `CC1=NNC(=O)C1C1C(=O)NN=C(c2c[nH]c3ccccc23)C1Br` (configuration not stated), for which the TGI in the assay with UO-31 renal was more than 100 µM; in the assay with RXF 393 renal, more than 100 µM; in the assay with CCRF-CEM leukemia it was 65.5 µM; with NCI-H522 lung, 92.4 µM; in the assay on NCI-H226 lung it was more than 100 µM; in the assay with MDA-MB-435, more than 100 µM. The TGI in the assay on HL-60(TB) leukemia, in the assay on K-562 leukemia, in the assay with SN12C renal and in the assay with NCI-H460 lung was more than 100 µM each time.

On to `CC(C)(C)c1ccc(OCCOc2ccc(C(C)(C)C)cc2N)c(N)c1`, for which the TGI with UO-31 renal, with RXF 393 renal, in the assay on CCRF-CEM leukemia, in the assay on NCI-H522 lung, in the assay with NCI-H226 lung and in the assay with MDA-MB-435 was more than 100 µM throughout. Moreover, the TGI with HL-60(TB) leukemia, in the assay on K-562 leukemia, in the assay with SN12C renal and with NCI-H460 lung was more than 100 µM throughout.

In the case of `CC(=O)c1c(-c2cccc3ccccc23)c(C#N)c(=S)n(C2OC(CO)C(O)C(O)C2O)c1C` (configuration not stated), the TGI with UO-31 renal, with RXF 393 renal, in the assay on CCRF-CEM leukemia, in the assay on NCI-H522 lung, in the assay on NCI-H226 lung and with MDA-MB-435 was more than 100 µM each time. Also, the TGI with HL-60(TB) leukemia, in the assay with K-562 leukemia, with SN12C renal and in the assay with NCI-H460 lung was more than 100 µM in each case. Also, the GI50 is > 100 µM and 46.9 µM in the assay on MDA-MB-435; > 100 µM and 42.1 µM in the assay with HL-60(TB) leukemia.

On to `C=CCOC(=O)N1c2ccc(O[Si](C)(C)C(C)(C)C)cc2[C@@]23O[C@@]24[C@@H]1C#C/C=C\C#C[C@]3(O)C(OC)(OC)C[C@@H]4C`, for which the TGI in the assay with UO-31 renal, in the assay on RXF 393 renal, in the assay with CCRF-CEM leukemia, with NCI-H522 lung, with NCI-H226 lung and in the assay with MDA-MB-435 was more than 100 µM in each case. Also, the TGI in the assay with HL-60(TB) leukemia, with K-562 leukemia, with SN12C renal and in the assay with NCI-H460 lung was more than 100 µM in each case.

For the origin of these results see PubChem BioAssay (NCI).
